Patent US20170107179A1 (Tetraphase Pharmaceuticals, Inc., priority 2010, published 2017)
Values after ≈ are worked out from the molar mass of the structure shown. Read-outs that look alike come from different tables or passages of the source.

What was measured:
[1] = tested on: Gram-positive pathogens; test: Broth microdilution MIC, respiratory/skin pathogens (Table 12); settings: E. faecalis, VAN S (n = 53)
[2] = tested on: Gram-negative and Gram-positive organisms (clinical isolates); test: Broth microdilution MIC against clinical isolates (CLSI M7-A8), Table 9; type: cell-based
[3] = tested on: Legionella pneumophila, 70 isolates, serogroups 1-6; test: microbe, parasite or virus in culture; type: cell-based
[4] = tested on: S. aureus Smith; test: Mouse systemic infection (septicemia) model, CD-1 mice; settings: Staphylococcus aureus, in Mus musculus, 48 h; for responders at 3 mg/kg: iv, read-out: Percent survival at 48 hours, IV (3 mg/kg); for responders at 30 mg/kg: po, read-out: Percent survival at 48 hours, PO (30 mg/kg)
[5] = tested on: E. coli DH10B EC1083 TetB; test: MIC, E. coli DH10B recombinantly expressing tetracycline-resistance gene; settings: arabinose-induced, ampicillin in medium
[6] = tested on: E. coli DH10B EC969 TetM; test: as above; settings: arabinose-induced, ampicillin in medium
[7] = tested on: E. coli DH10B EC1153 Tet(X); test: as above; settings: arabinose-induced, ampicillin in medium
[8] = tested on: E. coli DH10B EC1082 TetA; test: as above; settings: arabinose-induced, ampicillin in medium
[9] = tested on: E. coli DH10B EC971 LacZ; test: MIC, E. coli DH10B recombinantly expressing control gene; settings: E. coli DH10B, arabinose-induced, ampicillin in medium
[10] = tested on: E. coli DH10B EC970 TetK; test: MIC, E. coli DH10B recombinantly expressing tetracycline-resistance gene; settings: arabinose-induced, ampicillin in medium

`C[C@@H](O)[C@H]1C(=O)N2C(C(=O)O)=C(SCCN=CN)C[C@H]12` [Imipenern] was tested, and the MIC50 [1] was 1 µg/mL (≈ 3.34 µM) and the MIC90 [1] was 1 µg/mL (≈ 3.34 µM).

For `CCC[C@@H]1C[C@@H](C(=O)N[C@@H]([C@H]2O[C@H](SC)[C@H](O)[C@@H](O)[C@H]2O)[C@H](C)Cl)N(C)C1` [Clindarnycin], the MIC50 [1] was > 2 µg/mL and the MIC90 [1] was > 2 µg/mL.

For `CC[C@H]1OC(=O)[C@H](C)[C@@H](O[C@H]2C[C@@](C)(OC)[C@@H](O)[C@H](C)O2)[C@H](C)[C@@H](O[C@@H]2O[C@H](C)C[C@H](N(C)C)[C@H]2O)[C@](C)(O)C[C@@H](C)C(=O)[C@H](C)[C@@H](O)[C@]1(C)O` [Erythromycin], the MIC50 [2] was 0.03 µg/mL (≈ 0.0409 µM), the MIC90 [2] was > 0.5 µg/mL and the MIC50 ([2]; Staphylococcus aureus) was > 4 µg/mL. The MIC90 ([2]; Staphylococcus aureus) was > 4 µg/mL, the MIC50 ([2]; Streptococcus anginosus) was 0.03 µg/mL (≈ 0.0409 µM) and the MIC90 ([2]; Streptococcus anginosus) was > 0.5 µg/mL. The MIC50 ([2]; Streptococcus intermedius) was 0.06 µg/mL (≈ 0.0818 µM), the MIC90 ([2]; Streptococcus intermedius) was > 0.5 µg/mL and the MIC50 ([2]; Streptococcus mitis) was > 0.5 µg/mL. For the same molecule, the MIC90 ([2]; Streptococcus mitis) was > 0.5 µg/mL, the MIC50 [3] was 0.25 µg/mL (≈ 0.341 µM) and the MIC90 [3] was 0.5 µg/mL (≈ 0.681 µM).

`CCC(C)(C)N1Cc2c(O)c3c(c(OC)c2C1)C[C@H]1C[C@H]2[C@H](N(C)C)C(O)=C(C(N)=O)C(=O)[C@@]2(O)C(O)=C1C3=O` [Compound 119] was tested, and the responders at 3 mg/kg [4] was 83% and the responders at 30 mg/kg [4] was 75%.

For `CN(C)[C@@H]1C(O)=C(C(N)=O)C(=O)[C@@]2(O)C(O)=C3C(=O)c4c(O)c5c(c(F)c4C[C@H]3C[C@@H]12)CN1CCCC[C@@H]1C(=O)N5` [Compound 410], the responders at 3 mg/kg [4] was 100% and the responders at 30 mg/kg [4] was 50%.

`CN(C)[C@@H]1C(O)=C(C(N)=O)C(=O)[C@@]2(O)C(O)=C3C(=O)c4c(O)c5c(c(Cl)c4C[C@H]3C[C@@H]12)CN(C(C)(C)C)C5` [Compound 144] was tested, and the responders at 3 mg/kg [4] was 50% and the responders at 30 mg/kg [4] was 0%.

In the case of `CO/N=C(\C(=O)N[C@@H]1C(=O)N2C(C(=O)O)=C(CSc3nc(=O)c(=O)[nH]n3C)CS[C@H]12)c1csc(N)n1` [Ceftriaxone], the “MIC EC1083 TetB” value [5] is reported as 0.0625, the “MIC EC969 TetM” value [6] is reported as 0.5 and the “MIC EC1153 Tet(X)” value [7] is reported as 0.125. For the same molecule, the “MIC EC1082 TetA” value [8] was 0.0625, the “MIC EC971 LacZ” value [9] was 0.125 and the “MIC EC970 TetK” value [10] was 0.0625.

For `CC(C)C[C@H]1NCc2c(F)c3c(c(O)c2NC1=O)C(=O)C1=C(O)[C@]2(O)C(=O)C(C(N)=O)=C(O)[C@@H](N(C)C)[C@@H]2C[C@@H]1C3` [Compound 419], the responders at 3 mg/kg [4] was 100% and the responders at 30 mg/kg [4] was 40%.

In the case of `CCC(C)(C)N1Cc2c(O)c3c(c(F)c2C1)C[C@H]1C[C@H]2[C@H](N(C)C)C(O)=C(C(N)=O)C(=O)[C@@]2(O)C(O)=C1C3=O` [Compound 129], the responders at 3 mg/kg [4] is reported as 50% and the responders at 30 mg/kg [4] is reported as 0%.

`COc1c2c(c(O)c3c1C[C@H]1C[C@H]4[C@H](N(C)C)C(O)=C(C(N)=O)C(=O)[C@@]4(O)C(O)=C1C3=O)CN(C(C)(C)C)C2` [Compound 125] showed a responders at 3 mg/kg [4] of 100% and a responders at 30 mg/kg [4] of 33%.

Work on `CN(C)CC(=O)N1Cc2c(O)c3c(c(F)c2C1)C[C@H]1C[C@H]2[C@H](N(C)C)C(O)=C(C(N)=O)C(=O)[C@@]2(O)C(O)=C1C3=O` [Compound 131] yielded a responders at 3 mg/kg [4] of 100% and a responders at 30 mg/kg [4] of 17%.

`CN(C)[C@@H]1C(O)=C(C(N)=O)C(=O)[C@@]2(O)C(O)=C3C(=O)c4c(O)c5c(c(F)c4C[C@H]3C[C@@H]12)CN1CCC[C@H]1C(=O)N5` [Compound 412] showed a responders at 3 mg/kg [4] of 100% and a responders at 30 mg/kg [4] of 40%.

In the case of `CCC(C)(C)N1Cc2c(O)c3c(c(Cl)c2C1)C[C@H]1C[C@H]2[C@H](N(C)C)C(O)=C(C(N)=O)C(=O)[C@@]2(O)C(O)=C1C3=O` [Compound 150], the responders at 3 mg/kg [4] is reported as 0% and the responders at 30 mg/kg [4] is reported as 0%.

`CN1CC(=O)Nc2c(O)c3c(c(F)c2C1)C[C@H]1C[C@H]2[C@H](N(C)C)C(O)=C(C(N)=O)C(=O)[C@@]2(O)C(O)=C1C3=O` [Compound 416] was tested, and the responders at 3 mg/kg [4] was 100% and the responders at 30 mg/kg [4] was 20%.

`CCCN1CCc2c(O)c3c(c(F)c2C1)C[C@H]1C[C@H]2[C@H](N(C)C)C(O)=C(C(N)=O)C(=O)[C@@]2(O)C(O)=C1C3=O` [Compound 304] showed a responders at 3 mg/kg [4] of 0% and a responders at 30 mg/kg [4] of 17%.

`CCCN1Cc2c(O)c3c(c(Cl)c2C1)C[C@H]1C[C@H]2[C@H](N(C)C)C(O)=C(C(N)=O)C(=O)[C@@]2(O)C(O)=C1C3=O` [Compound 149] was tested, and the responders at 3 mg/kg [4] was 17% and the responders at 30 mg/kg [4] was 0%.

Work on `CC(C)C[C@@H]1C(=O)Nc2c(O)c3c(c(F)c2CN1C)C[C@H]1C[C@H]2[C@H](N(C)C)C(O)=C(C(N)=O)C(=O)[C@@]2(O)C(O)=C1C3=O` [Compound 428] yielded a responders at 3 mg/kg [4] of 50% and a responders at 30 mg/kg [4] of 0%.

With `CN(C)[C@@H]1C(O)=C(C(N)=O)C(=O)[C@@]2(O)C(O)=C3C(=O)c4c(O)c5c(c(F)c4C[C@H]3C[C@@H]12)CN(C(C)(C)C1CC1)C5` [Compound 118] the responders at 3 mg/kg [4] was 17% and the responders at 30 mg/kg [4] was 50%.
